Measured values: patent US10975352B2, “Methods of enhancing cell survival of stem cells” (The Scripps Research Institute, priority 2008, dated 2021)

What was measured:
[1] = tested on: mouse P1 cortical explants; test: Axon outgrowth from mouse P1 cortical explants; type: cell-based; settings: 3 μM; added 20 minutes after plating; 4 days in culture; DMSO control
Procedure: Compounds of formula I and III (i.e., Tvz and Ptn) are effective at promoting axonal regeneration and functional recovery in injured central nervous system. […] Tzv (3 μM) was tested on mouse P1 cortical explants, with axon outgrowth as an outcome read-out. Tzv was added to the medium 20 minutes after plating, with DMSO as a control. […] Accordingly, in some embodiments, a compound of the present invention is administered to an individual having a central nervous system injury or who is in need or would otherwise benefit from axonal regeneration.

[2] = tested on: primary human pancreatic islets/beta cells; test: Cell death of dispersed primary human pancreatic islets/beta cells; type: cell-based; settings: plate coated with matrigel or laminin; 1-2 mM in media
Procedure: For example, the inventors dispersed primary human pancreatic islets/beta cells plated as single cells onto a tissue culture plate that was coated with matrigel or laminin. […] Accordingly, in some embodiments, a compound of the present invention is administered to an individual in need of pancreatic beta and/or islet cells, wherein administration of the compound results in an increase in the number of beta or islet cells in the individual.

stem cells = test: Survival and anti-differentiation of stem cells ex vivo; type: cell-based; settings: human and mouse embryonic, neural, skin, mesenchymal, hematopoietic, stromal and epithelial stem cells; contact immediately after isolation
Text: In some embodiments, the invention provides methods of promoting survival and anti-differentiation in stem cells ex-vivo.

E-cadherin [3] = test: E-cadherin expression in hESCs after trypsin dissociation (Western blot, flow cytometry, RT-PCR); type: cell-based, human
Text: We then examined E-cadherin expression in hESCs after trypsin dissociation. […] This observation was consistent with the report that the extracellular region of E-cadherin has an endoproteolytic cleavage site near the transmembrane domain (Damsky, C. H. et al., Cell 34 (2):455-466 (1983)). […] Therefore, Tzv is likely to affect cell adhesion by modulating cell surface level of E-cadherins. […] It is likely that Tzv exerts its effect through stabilization of E-cadherin on the cell surface.
To assess the expression of E-cadherin, activated integrin and SSEA4, dissociated cells (3×10^5) were washed with PBS and resuspended in PBS containing 2% goat serum. Cells were then incubated with the appropriate antibody for 1 h at 4° C., washed with the blocking solution, and labeled with FITC-conjugated secondary antibody for 30 min at 4° C. Cells were then washed and analyzed on a FACS Calibur flow cytometer.

hESCs [4] = test: Karyotyping (G-banding) of long-term expanded hESCs; type: cell-based, human; settings: more than 20 generations; chemically-defined medium
Procedure: Teratoma formation experiments were performed by injecting 3-5 million hESCs (maintained in the presence of compounds Tvz or Ptn) under the kidney capsule of nude mice. After 4-5 weeks, all mice developed teratomas, which were removed and then immunohistologically analyzed by The Scripps Research Institute Research Histology Service and Animal Resources. Compounds treated cells were karyotyped by standard G-banding at the Children's Hospital Oakland, Cytogenetics Laboratory. No chromosomal abnormality was found in the 10 randomly picked nuclei.

hESCs [5] = test: Cell death analysis of dissociated hESCs in suspension culture; type: cell-based, human
Text: hESCs are known to be difficult in forming embryoid bodies (EBs) in suspension culture after single cell dissociation due to extensive cell death. Thus, we also tested whether Tzv or Ptn could promote survival of dissociated hESCs in suspension. […] Because cell aggregation is most often mediated through cell-cell adhesions and E-cadherin is the primary cell-cell adhesion molecule, as well as highly expressed in hESCs (Eastham, A. M. et al., Cancer Res 67 (23): 11254-11262 (2007)), we tested the effect of a specific E-cadherin blocking antibody on multicellular aggregate formation.
The hESCs under different treatments were dissociated by trypsin and fixed by 4% paraformaldehyde. And the staining was carried out according to the manufacturer's instructions (MBL Laboratories, Watertown, Mass.). After staining, samples were analysed by flow cytometry using a FACS Calibur flow cytometer (BD).

hESCs [6] = test: Cell adhesion assay; type: cell-based, human
Procedure: Cell adhesion assays were performed in 96-well microtiter plates coated with Matrigel. After trypsin, hESCs were resuspended in the chemically-defined media containing the desired compounds. Cells were then added to the microtiter wells and incubated for 3 h at 37° C. Unbound and loosely bound cells were removed by shaking and washing, and the remaining cells were then fixed immediately. The wells were washed 3 times with 200 μl of H2O, and attached cells were stained with Crystal Violet (Sigma). The absorbance of each well at 570 nm was then measured. For experiments with blocking antibodies, cells were pre-incubated with antibodies on ice for 30 min, and adhesion assays were performed in the presence of antibodies. Each sample was assayed independently for three times.

E-cadherin [7] = test: Endocytosis assay; type: cell-based, human
Procedure: hESCs were incubated with 1.5 mg/ml sulfosuccinimidyl 2-(biotinamido) ethyl-dithioproprionate (sulfo-NHS-SS-biotin) (Pierce Chemical Co.) on ice, followed by washing and quenching. Endocytosis of E-cadherin was initiated by Ca^2+ depletion and 37° C. incubation. Cells were then incubated in two 20-min washes of glutathione solution (60 mM glutathione, 0.83 M NaCl, with 0.83 M NaOH and 1% BSA added before use) at 0° C. which removed all cell surface biotin groups. Remaining biotinylated proteins were sequestered inside cells by endocytosis and were therefore protected from glutathione stripping. Biotinylated proteins were recovered on streptavidin beads and analyzed by SDS-PAGE. E-Cadherins were detected by immunoblotting. Total level of surface E-cadherin before endocytosis was used as reference.

karyotype of hESCs serially passaged in compound-containing medium (hESCs [4]): normal karyotype
Compound: O=C(NCc1ccccc1)c1csc(Nc2ccncn2)n1 [Tzv, N-benzyl-2-(pyrimidin-4-ylamino)thiazole-4-carboxamide]
axon outgrowth [1]: dramatic effect in promoting axon outgrowth
cell death of single primary beta cells [2]: cell death was inhibited
survival and anti-differentiation of stem cells (stem cells): effective in promoting survival and anti-differentiation
cell surface E-cadherins (E-cadherin [3]; flow cytometry): significantly increased
E-cadherin transcripts vs mock controls (E-cadherin [3]; semiquantitative RT-PCR): comparable amounts
full-length E-cadherin expression after trypsin dissociation (E-cadherin [3]; time-course Western blot): significantly increased
survival of dissociated hESCs in suspension culture (hESCs [5]): greatly improved survival
adhesion of dissociated hESCs to Matrigel or laminin (hESCs [6]): dramatically increased adhesion
adhesion of hESCs to gelatin or poly-lysine (hESCs [6]): not affected
internalization of E-cadherins (E-cadherin [7]): significantly blocked
